Data taken from ChEMBL document CHEMBL5724914, “Linking interpersonal differences in gut microbiota composition and drug biotransformation activity” (2024).

Legend:
[1] = (§1) The drug is tested on Z-006 corresponding to mouse gut metagenome with ENA study accession number: PRJEB37062 and ENA sample accession number: ERS12561806 for biotransformation under anaerobic condition. The drug concentrations were measured over 9 timepoints collected between 0 and 24 hours of incubation by liquid-chromatography-coupled mass spectrometry (LC–MS); conditions: 2 µM
[2] = as §1, with “WLS-077” for “Z-006”, “human” for “mouse”, “ERS12561750” for “ERS12561806”; conditions: 2 µM
[3] = as §1, with “Z-008” for “Z-006”, “to” for “to mouse gut”, “ERS12561808” for “ERS12561806”; conditions: 2 µM
[4] = human gut metagenome, 24 h, 2 µM
[5] = human gut metagenome, 24 h, 2 µM; remark: listed apart in the source
[6] = as §1, with “WLS-240” for “Z-006”, “human” for “mouse”, “ERS12561773” for “ERS12561806”; conditions: 2 µM
[7] = human gut metagenome, 24 h, 2 µM; remark: listed apart in the source
[8] = as §1, with “Z-001” for “Z-006”, “ERS12561801” for “ERS12561806”; conditions: 2 µM
[9] = as §1, with “Z-011” for “Z-006”, “ERS12561811” for “ERS12561806”; conditions: 2 µM
[10] = as §1, with “WLS-039” for “Z-006”, “human” for “mouse”, “ERS12561746” for “ERS12561806”; conditions: 2 µM
[11] = human gut metagenome, 24 h, 2 µM; remark: listed apart in the source
[12] = human gut metagenome, 24 h, 2 µM; remark: listed apart in the source
[13] = as §1, with “Z-028” for “Z-006”, “ERS12561827” for “ERS12561806”; conditions: 2 µM
[14] = as §1, with “Z-023” for “Z-006”, “to” for “to mouse gut”, “ERS12561822” for “ERS12561806”; conditions: 2 µM
[15] = human gut metagenome, 24 h, 2 µM; remark: listed apart in the source
[16] = human gut metagenome, 24 h, 2 µM; remark: listed apart in the source
[17] = as §1, with “Z-018” for “Z-006”, “pig” for “mouse”, “ERS12561817” for “ERS12561806”; conditions: 2 µM
[18] = as §1, with “Z-010” for “Z-006”, “to” for “to mouse gut”, “ERS12561810” for “ERS12561806”; conditions: 2 µM
[19] = as §1, with “WLS-350” for “Z-006”, “human” for “mouse”, “ERS12561789” for “ERS12561806”; conditions: 2 µM
[20] = as §1, with “Z-013” for “Z-006”, “rabbit” for “mouse”, “ERS12561813” for “ERS12561806”; conditions: 2 µM
Also: call rule not given here.

SMILES	Bacterial Biotransformation [1]	Bacterial Biotransformation [2]	Bacterial Biotransformation [3]	Bacterial Biotransformation [4]	Bacterial Biotransformation [5]	Bacterial Biotransformation [6]	Bacterial Biotransformation [7]	Bacterial Biotransformation [8]	Bacterial Biotransformation [9]	Bacterial Biotransformation [10]	Bacterial Biotransformation [11]	Bacterial Biotransformation [12]	Bacterial Biotransformation [13]	Bacterial Biotransformation [14]	Bacterial Biotransformation [15]	Bacterial Biotransformation [16]	Bacterial Biotransformation [17]	Bacterial Biotransformation [18]	Bacterial Biotransformation [19]	Bacterial Biotransformation [20]
COc1cc(C(=O)NCc2ccc(OCCN(C)C)cc2)cc(OC)c1OC [TRIMETHOBENZAMIDE]	Compound NOT metabolized	Compound NOT metabolized	Compound NOT metabolized	Compound NOT metabolized	Compound NOT metabolized	Compound NOT metabolized	Compound NOT metabolized	Compound NOT metabolized	Compound NOT metabolized	Compound NOT metabolized	Compound NOT metabolized	Compound NOT metabolized	Compound NOT metabolized	Compound NOT metabolized	Compound NOT metabolized	Compound NOT metabolized	Compound NOT metabolized	Compound NOT metabolized	Compound NOT metabolized	Compound NOT metabolized
COc1ccc(C(CN(C)C)C2(O)CCCCC2)cc1 (stereo not given) [VENLAFAXINE]	Compound NOT metabolized	Compound NOT metabolized	Compound NOT metabolized	Compound NOT metabolized	Compound NOT metabolized	Compound metabolized	Compound NOT metabolized	Compound metabolized	Compound NOT metabolized	Compound NOT metabolized	Compound NOT metabolized	Compound NOT metabolized	Compound NOT metabolized	Compound NOT metabolized	Compound NOT metabolized	Compound NOT metabolized	Compound NOT metabolized	Compound NOT metabolized	Compound NOT metabolized	Compound NOT metabolized
CCOC(=O)C1=C[C@]2(CC)CCCN3CCc4c(n1c1ccccc41)[C@@H]32 [VINPOCETINE]	Compound NOT metabolized	Compound metabolized	Compound NOT metabolized	Compound metabolized	Compound NOT metabolized	Compound metabolized	Compound metabolized	Compound NOT metabolized	Compound NOT metabolized	Compound NOT metabolized	Compound metabolized	Compound metabolized	Compound NOT metabolized	Compound metabolized	Compound metabolized	Compound metabolized	Compound metabolized	Compound metabolized	Compound metabolized	Compound NOT metabolized
C[C@@H](c1ncncc1F)[C@](O)(Cn1cncn1)c1ccc(F)cc1F [VORICONAZOLE]	Compound NOT metabolized	Compound metabolized	Compound NOT metabolized	Compound metabolized	Compound metabolized	Compound metabolized	Compound metabolized	Compound NOT metabolized	Compound NOT metabolized	Compound metabolized	Compound metabolized	Compound metabolized	Compound NOT metabolized	Compound metabolized	Compound metabolized	Compound metabolized	Compound metabolized	Compound metabolized	Compound metabolized	Compound NOT metabolized
CCN(C(C)=O)c1cccc(-c2ccnc3c(C#N)cnn23)c1 [ZALEPLON]	Compound NOT metabolized	Compound metabolized	Compound NOT metabolized	Compound metabolized	Compound NOT metabolized	Compound metabolized	Compound metabolized	Compound NOT metabolized	Compound NOT metabolized	Compound metabolized	Compound metabolized	Compound metabolized	Compound NOT metabolized	Compound metabolized	Compound metabolized	Compound metabolized	Compound metabolized	Compound metabolized	Compound metabolized	Compound NOT metabolized
